According to patent US20070225255A1, “Use of Mitochondrially Targeted Antioxidant in the Treatment of Liver Diseases and Epithelial Cancers” (priority 2004, published 2007):

Assays:
DDC intoxicated mice [1] = test: Long term (10 weeks) DDC intoxication, liver histology (cell ballooning, Mallory bodies); conditions: then 1 week without DDC with two injections of MitoQ
Description: Furthermore, single-label immunohistochemistry or double-label immunoflourescence microscopy is performed to detect MBs in tested animals.
In long term experiments by using mice intoxicated with DDC (for 8-10 weeks) the presence (or absence) of cell ballooning and/or Mallory bodies (MBs) in liver samples of treated animals is determined and compared to the control groups of animals.
In another set of experiments, after 10 weeks of DDC intoxication tested animals receive i.p. injections of MitoQ (1.25 mg/kg) twice within subsequent 7 days (day 1 and day 4 of the corresponding week), and are analysed by routine histology (standard haematoxylin/eosin staining according to Luna L. G., 1968, Manual of Histologic staining methods of the Armed Forces Institute of Pathology, 3rd edition. McGraw Hill, New York).

hemoxygenase 1 (HO-1) = test: Western blot of hemoxygenase 1 in liver extracts of DDC intoxicated mice; type: in vivo, mouse; conditions: DDC 3 days, daily i.p. MitoQ in PBS/1% DMSO (112 nmol/kg), versus DDC intoxicated mice
Description: To evaluate hemoxygenase 1 (HO-1) protein expression know to be induced by oxidative stress (Suematsu M. and Ishimura Y., 2000, Hepatology, 31(1): 3-6) standard western blot analysis is performed using protein extracts derived from DDC intoxicated mice treated simultaneously for 3 days with MitoQ (diluted in 1% DMSO in PBS) or just vehicle itself (see protocols in Example 3).
Liver tissues are resuspended in ice-cold RIPA-buffer (50 mM Tris-HCl pH 7.4, 250 mM NaCl, 0.1% SDS, 1% deoxycholate, 1% NP-40) supplemented with 2 μg/ml leupeptin, 2 μg/ml pepstatin, 2 μg/ml aprotinin, 1 mM phenylmethylsulfonylfluoride (PMSF), and 2 mM dithiothreitol followed by homogenization through sonication (2 bursts of 5 seconds) on ice. After incubation for 20 minutes on ice, the lysates are cleared by two centrifugational steps in a microcentrifuge at 13 000 rpm for 15 minutes at 4° C. and the supernatants are collected. Protein concentrations are determined by the Bradford assay (Biorad) using bovine serum albumin as a standard. […] The intensities of the bands can be analysed densitometrically using ChemiImager 5500 software (Alpha Innotech) and each signal normalised to the intensity of the corresponding HO-2 (showing 7 fold reduction of HO-1 upon MitoQ treatment when compared to DDC intoxicated group of animals), or alternatively to β-actin.

HUH-7 cells = test: ROS production induced by Antimycin A, lucigenin chemiluminescence assay; type: cell-based, human; conditions: Antimycin A 0, 1 and 5 μM, MitoQ 0 to 1000 nmol, 3 hours at 37° C.
Description: HUH-7 cells are incubated in 6 well plates and stimulated with Antimycin A in concentration 0-25 μM (0, 1 and 5 μM) simultaneously with or without MitoQ in concentration range from 0 to 1000 nmol dissolved in DMEM (Gibco) for 3 hours at 37° C. The light reaction between superoxide and lucigenin is detected. X axis represents a concentration range of MitoQ [nM] whereas y axis the chemiluminescence signal expressed as average counts per minute [cpm] after normalization to cell number determined by cell counter.
Another approach allows measurement of the ROS production induced by antimycin A or rotenone by using lucigenin chemiluminescence assay (experimental set up as in Example 9) in e.g. HUH-7 or Tib-73. HUH-7 cells are incubated in 6 well plates and stimulated by using antimycin A in concentration 0-25 μM (preferably 0, 1 and 5 μM) simultaneously with or without MitoQ (or MitoS) in concentration range from 0 to 1000 nmol dissolved in DMEM (Gibco) for 3 hours at 37° C. […] The light reaction between superoxide and lucigenin is detected using a chemiluminescence reader (Lumistar, BMG laboratories, Germany). The chemiluminescence signal is expressed as average counts per minute and normalized to cell number as determined by cell counter (Casy Technology Instrument, Schärfe-System, Germany).

DDC intoxicated mice [2] = test: Short term (3 days) DDC intoxication, liver histology (H&E); conditions: DDC 3 days
Description: Liver samples prepared according to Example 1 are used for simple histologic staining such as with haematoxylin and eosin (Luna L. G., 1968, Manual of Histologic staining methods of the Armed Forces Institute of Pathology, 3rd edition. McGraw Hill, New York). Furthermore, single-label immunohistochemistry or double-label immunoflourescence microscopy is performed to detect MBs in tested animals.
In another set of experiments 3 to 12 mg/kg of MitoQ dissolved in 1% of DMSO in PBS is given intraperitoneally simultaneously to DDC intoxicated mice for 3 days and compared to control animals (positive control group represents DDC intoxicated mice whereas negative control represents non DDC intoxicated but vehicle injected animals).

[3] = test system: fatty acid binding protein (FABP); test: Western blot of fatty acid binding protein in DDC intoxicated mice; type: in vivo, mouse; conditions: MitoQ treatment of DDC intoxicated animals
Description: The protein expression level(s) of fatty acid binding protein (FABP) representing a sensitive marker for hepatocyte damage (Monbaliu D . et al., 2005, Transplant Proc. 37(1):413-416) is determined.

[4] = according to Jauslin M. L. et al., 2003, FASEB J.; cited from earlier work
[5] = fed to mice on a long term basis; cited from earlier work

MitoQ
accumulation of protoporphyrin in bile ducts (DDC intoxicated mice [1]): markedly reduced | reduction of HO-1 protein expression normalised to HO-2 (hemoxygenase 1 (HO-1)): 7 fold | ROS formation (lucigenin chemiluminescence) (HUH-7 cells): significant reduction in ROS formation | inflammatory cells around the portal vein (DDC intoxicated mice [2]; simultaneous MitoQ 6 mg/kg): Absence of inflammatory cells | morphology of the hepatocytes (size and morphology of nuclei, structure of cytoplasm) (DDC intoxicated mice [2]; simultaneous MitoQ 6 mg/kg): normal | liver architecture (strands of hepatocytes bordered by sinusoids) (DDC intoxicated mice [2]; simultaneous MitoQ in PBS/1% DMSO, 6 mg/kg): normal architecture again is visible | FABP protein expression [3]: reaches almost control mice FABP protein expression values | EC50 [4]: 510 pM | concentrations within the brain, heart, liver, and muscle [5]: potentially therapeutically effective concentrations | safety of feeding [5]: fed safely
